Measurements taken from the NIST ThermoML archive (doi:10.1021/acs.jced.8b00684).
Numbers after ± are expanded uncertainties.

Legend:
[1] = xn = mol fraction of the nth substance listed; settings: 100 kPa, Liquid, Falling or rolling sphere viscometry, x2 = 0
[2] = 100 kPa, Liquid, Falling or rolling sphere viscometry

Structure (SMILES) | viscosity ([1]; 293.15 K) [mPa·s] | viscosity ([1]; 298.15 K) [mPa·s] | viscosity ([1]; 303.15 K) [mPa·s] | viscosity ([1]; 313.15 K) [mPa·s] | viscosity ([1]; 323.15 K) [mPa·s] | viscosity ([1]; 333.15 K) [mPa·s] | viscosity ([1]; 343.15 K) [mPa·s] | viscosity ([1]; 353.15 K) [mPa·s] | viscosity ([2]; 293.15 K) [mPa·s] | viscosity ([2]; 298.15 K) [mPa·s] | viscosity ([2]; 303.15 K) [mPa·s] | viscosity ([2]; 313.15 K) [mPa·s] | viscosity ([2]; 323.15 K) [mPa·s] | viscosity ([2]; 333.15 K) [mPa·s] | viscosity ([2]; 343.15 K) [mPa·s] | viscosity ([2]; 353.15 K) [mPa·s]
C[S+](C)[O-] [dimethyl sulfoxide] + CCCCCCn1cc[n+](C)c1.F[B-](F)(F)F | 2.21 ± 0.09 | 2.01 ± 0.08 | 1.84 ± 0.07 | 1.56 ± 0.06 | 1.34 ± 0.05 | 1.17 ± 0.05 | 1.03 ± 0.04 | 0.92 ± 0.04 |  |  |  |  |  |  |  | 
C[S+](C)[O-] [dimethyl sulfoxide] |  |  |  |  |  |  |  |  | 2.21 ± 0.09 | 2.01 ± 0.08 | 1.84 ± 0.07 | 1.56 ± 0.06 | 1.34 ± 0.05 | 1.17 ± 0.05 | 1.03 ± 0.04 | 0.92 ± 0.04
CC#N [acetonitrile] |  |  |  |  |  |  |  |  | 0.39 ± 0.02 | 0.37 ± 0.02 | 0.35 ± 0.02 | 0.33 ± 0.01 | 0.3 ± 0.01 | 0.28 ± 0.01 | 0.26 ± 0.01 | 
CCCCCCn1cc[n+](C)c1.F[B-](F)(F)F [1-hexyl-3-methylimidazolium tetrafluoroborate] |  |  |  |  |  |  |  |  | 293 ± 20 | 216 ± 13 | 163 ± 9 | 96.7 ± 4.3 | 61.8 ± 2.5 | 41.9 ± 1.7 | 29.5 ± 1.2 | 21.7 ± 0.9
CC#N [acetonitrile] + CCCCCCn1cc[n+](C)c1.F[B-](F)(F)F | 0.39 ± 0.02 | 0.37 ± 0.02 | 0.35 ± 0.02 | 0.33 ± 0.01 | 0.3 ± 0.01 | 0.28 ± 0.01 | 0.26 ± 0.01 |  |  |  |  |  |  |  |  | 
